# From US20250163066A1, “PROTACs of MALT1” (TEGID THERAPEUTICS, INC., priority 2022, published 2025)
# Molecular target: MALT1 (Homo sapiens (Human), UniProt Q9UDY8)
# Test: MALT1 enzymatic activity inhibition (fluorescence, Ac-LRSR-AMC substrate)
# Format: biochemical
# Conditions: recombinant MALT1 1.5 ng/μl, Ac-LRSR-AMC 1 μM
# Summary of the method: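 Recombinant human MALT1 (1.5 ng/μl final) preincubated 10 min at rt with compounds in 50 mM HEPES pH 7.2-7.4, 100 mM NaCl, 900 mM sodium citrate, 10 mM DTT; 1 μM Ac-LRSR-AMC then added. AMC fluorescence read at start and after 30 min 37 °C plus 30 min rt; difference gives signal, % inhibition fitted to IC50.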
# Sequence of MALT1 (Q9UDY8 whole entry): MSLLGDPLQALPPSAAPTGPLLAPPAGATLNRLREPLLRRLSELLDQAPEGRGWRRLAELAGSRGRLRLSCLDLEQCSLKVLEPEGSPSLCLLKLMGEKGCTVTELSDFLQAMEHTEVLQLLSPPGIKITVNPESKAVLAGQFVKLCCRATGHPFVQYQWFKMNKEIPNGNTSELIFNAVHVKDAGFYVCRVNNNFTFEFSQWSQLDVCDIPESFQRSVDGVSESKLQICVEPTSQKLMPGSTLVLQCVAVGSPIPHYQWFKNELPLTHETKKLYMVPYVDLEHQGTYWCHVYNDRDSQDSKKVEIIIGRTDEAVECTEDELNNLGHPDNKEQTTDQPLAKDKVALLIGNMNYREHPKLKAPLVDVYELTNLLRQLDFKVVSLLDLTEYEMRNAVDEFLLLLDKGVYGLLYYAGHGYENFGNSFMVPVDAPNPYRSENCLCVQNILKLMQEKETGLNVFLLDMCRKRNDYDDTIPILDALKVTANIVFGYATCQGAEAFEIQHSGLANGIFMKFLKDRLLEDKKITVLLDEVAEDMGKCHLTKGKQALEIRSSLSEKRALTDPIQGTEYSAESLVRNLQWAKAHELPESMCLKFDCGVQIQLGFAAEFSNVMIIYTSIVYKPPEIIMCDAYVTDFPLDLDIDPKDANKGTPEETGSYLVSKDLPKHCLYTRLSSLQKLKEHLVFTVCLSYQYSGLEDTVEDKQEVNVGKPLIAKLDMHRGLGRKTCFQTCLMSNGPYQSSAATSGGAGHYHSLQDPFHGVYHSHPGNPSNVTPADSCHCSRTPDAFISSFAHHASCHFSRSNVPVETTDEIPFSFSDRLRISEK
row,EC50,Compound
1,≤ 0.2 µM,"CC(C)c1c(NC(=O)Nc2cnc(-c3noc(CCCC(=O)N4CCN(c5ccc6c(c5)CN(C5CCC(=O)N(COC(=O)C(C)(C)C)C5=O)C6=O)CC4)n3)c(Cl)c2)cnc2ccnn12 (centres unmarked) [Compound 137, [3-[5-[4-[4-[3-[3-chloro-5-[(7-isopropylpyrazolo[1,5-a]pyrimidin-6-yl)carbamoylamino]-2-pyridyl]-1,2,4-oxadiazol-5-yl]butanoyl]piperazin-1-yl]-1-oxo-isoindolin-2-yl]-2,6-dioxo-1-piperidyl]methyl 2,2-dimethylpropanoate]"
2,≤ 0.2 µM,"CC(C)c1c(NC(=O)Nc2cnc(-c3noc(CCCCC(=O)N4CCN(c5ccc6c(c5)CN(C5CCC(=O)N(COC(=O)C(C)(C)C)C5=O)C6=O)CC4)n3)c(Cl)c2)cnc2ccnn12 (centres unmarked) [Compound 138, [3-[5-[4-[5-[3-[3-chloro-5-[(7-isopropylpyrazolo[1,5-a]pyrimidin-6-yl)carbamoylamino]-2-pyridyl]-1,2,4-oxadiazol-5-yl]pentanoyl]piperazin-1-yl]-1-oxo-isoindolin-2-yl]-2,6-dioxo-1-piperidyl]methyl 2,2-dimethylpropanoate]"
3,≤ 0.2 µM,"CC(C)c1c(NC(=O)Nc2cnc(-c3noc(CCCCC(=O)N4CCN(c5ccc6c(c5)CN(C5CCC(=O)NC5=O)C6=O)CC4)n3)c(Cl)c2)cnc2ccnn12 (centres unmarked) [Compound 139, 1-[5-chloro-6-[5-[5-[4-[2-(2,6-dioxo-3-piperidyl)-1-oxo-isoindolin-5-yl]piperazin-1-yl]-5-oxo-pentyl]-1,2,4-oxadiazol-3-yl]-3-pyridyl]-3-(7-isopropylpyrazolo[1,5-a]pyrimidin-6-yl)urea]"
4,≤ 0.2 µM,"CC(C)c1c(NC(=O)Nc2cnc(-c3noc(CCCC(=O)N4CCN(c5ccc6c(c5)CN(C5CCC(=O)NC5=O)C6=O)CC4)n3)c(Cl)c2)cnc2ccnn12 (centres unmarked) [Compound 140, 1-[5-chloro-6-[5-[4-[4-[2-(2,6-dioxo-3-piperidyl)-1-oxo-isoindolin-5-yl]piperazin-1-yl]-4-oxo-butyl]-1,2,4-oxadiazol-3-yl]-3-pyridyl]-3-(7-isopropylpyrazolo[1,5-a]pyrimidin-6-yl)urea]"
5,0.2 to 0.5 µM,"Cc1cc(NC(=O)Nc2cnc3ccnn3c2C2CCCCC2)cnc1-c1noc(CCCCN2CCN(c3ccc4c(c3)CN(C3CCC(=O)NC3=O)C4=O)CC2)n1 (centres unmarked) [Compound 141, 1-(7-cyclohexylpyrazolo[1,5-a]pyrimidin-6-yl)-3-[6-[5-[4-[4-[2-(2,6-dioxo-3-piperidyl)-1-oxo-isoindolin-5-yl]piperazin-1-yl]butyl]-1,2,4-oxadiazol-3-yl]-5-methyl-3-pyridyl]urea]"
6,1 to 5 µM,"CC(C)c1c(NC(=O)Nc2ccc(-c3nnc(CCCCCCN4CCN(c5ccc6c(c5)CN(C5CCC(=O)NC5=O)C6=O)CC4)s3)nc2)cnc2ccnn12 (centres unmarked) [Compound 142, 1-[6-[5-[6-[4-[2-(2,6-dioxo-3-piperidyl)-1-oxo-isoindolin-5-yl]piperazin-1-yl]hexyl]-1,3,4-thiadiazol-2-yl]-3-pyridyl]-3-(7-isopropylpyrazolo[1,5-a]pyrimidin-6-yl)urea]"
7,1 to 5 µM,"O=C1CCC(N2Cc3cc(N4CCN(CCCCCCc5nnc(-c6ccc(NC(=O)Nc7cnc8ccnn8c7C7CCCC7)cn6)s5)CC4)ccc3C2=O)C(=O)N1 (centres unmarked) [Compound 143, 1-(7-cyclopentylpyrazolo[1,5-a]pyrimidin-6-yl)-3-[6-[5-[6-[4-[2-(2,6-dioxo-3-piperidyl)-1-oxo-isoindolin-5-yl]piperazin-1-yl]hexyl]-1,3,4-thiadiazol-2-yl]-3-pyridyl]urea]"
8,≤ 0.2 µM,"Cc1cc(NC(=O)Nc2cnc3ccnn3c2C(C)C)cnc1-c1noc(CCCC(=O)N2CCN(c3ccc4c(c3)CN(C3CCC(=O)N(C)C3=O)C4=O)CC2)n1 (centres unmarked) [Compound 144, 1-(7-isopropylpyrazolo[1,5-a]pyrimidin-6-yl)-3-[5-methyl-6-[5-[4-[4-[2-(1-methyl-2,6-dioxo-3-piperidyl)-1-oxo-isoindolin-5-yl]piperazin-1-yl]-4-oxo-butyl]-1,2,4-oxadiazol-3-yl]-3-pyridyl]urea]"
9,≤ 0.2 µM,"Cc1cc(NC(=O)Nc2cnc3ccnn3c2C(C)C)cnc1-c1noc(CCCCC(=O)N2CCN(c3ccc4c(c3)CN(C3CCC(=O)N(C)C3=O)C4=O)CC2)n1 (centres unmarked) [Compound 145, 1-(7-isopropylpyrazolo[1,5-a]pyrimidin-6-yl)-3-[5-methyl-6-[5-[5-[4-[2-(1-methyl-2,6-dioxo-3-piperidyl)-1-oxo-isoindolin-5-yl]piperazin-1-yl]-5-oxo-pentyl]-1,2,4-oxadiazol-3-yl]-3-pyridyl]urea]"
10,≤ 0.2 µM,"Cc1cc(NC(=O)Nc2cnc3ccnn3c2C(C)C)cnc1-c1noc(CCCCCC(=O)N2CCN(c3ccc4c(c3)CN(C3CCC(=O)N(C)C3=O)C4=O)CC2)n1 (centres unmarked) [Compound 146, 1-(7-isopropylpyrazolo[1,5-a]pyrimidin-6-yl)-3-[5-methyl-6-[5-[6-[4-[2-(1-methyl-2,6-dioxo-3-piperidyl)-1-oxo-isoindolin-5-yl]piperazin-1-yl]-6-oxo-hexyl]-1,2,4-oxadiazol-3-yl]-3-pyridyl]urea]"
11,≤ 0.2 µM,"CCCCOP(=O)(OCCCC)OCN1C(=O)CCC(N2Cc3cc(N4CCN(C(=O)CCCCc5nc(-c6ncc(NC(=O)Nc7cnc8ccnn8c7C(C)C)cc6C)no5)CC4)ccc3C2=O)C1=O (centres unmarked) [Compound 147, dibutyl [3-[5-[4-[5-[3-[5-[(7-isopropylpyrazolo[1,5-a]pyrimidin-6-yl)carbamoylamino]-3-methyl-2-pyridyl]-1,2,4-oxadiazol-5-yl]pentanoyl]piperazin-1-yl]-1-oxo-isoindolin-2-yl]-2,6-dioxo-1-piperidyl]methyl phosphate]"
12,0.5 to 1 µM,"CCCCOP(=O)(OCCCC)OCN1C(=O)CCC(N2Cc3cc(N4CCN(C(=O)CCCCCc5nc(-c6ncc(NC(=O)Nc7cnc8ccnn8c7C(C)C)cc6C)no5)CC4)ccc3C2=O)C1=O (centres unmarked) [Compound 148, dibutyl [3-[5-[4-[6-[3-[5-[(7-isopropylpyrazolo[1,5-a]pyrimidin-6-yl)carbamoylamino]-3-methyl-2-pyridyl]-1,2,4-oxadiazol-5-yl]hexanoyl]piperazin-1-yl]-1-oxo-isoindolin-2-yl]-2,6-dioxo-1-piperidyl]methyl phosphate]"
13,≤ 0.2 µM,"Cc1cc(NC(=O)Nc2cnc3ccnn3c2C(C)C)cnc1-c1noc(CCCC(=O)N2CCN(c3ccc4c(c3)CN(C3CCC(=O)N(COC(=O)C(C)(C)C)C3=O)C4=O)CC2)n1 (centres unmarked) [Compound 149, [3-[5-[4-[4-[3-[5-[(7-isopropylpyrazolo[1,5-a]pyrimidin-6-yl)carbamoylamino]-3-methyl-2-pyridyl]-1,2,4-oxadiazol-5-yl]butanoyl]piperazin-1-yl]-1-oxo-isoindolin-2-yl]-2,6-dioxo-1-piperidyl]methyl 2,2-dimethylpropanoate]"
14,1 to 5 µM,"Cc1cc(NC(=O)Nc2cnc3ccnn3c2C(C)(C)C)cnc1-c1noc(CCCCCN2CCN(c3ccc4c(c3)CN(C3CCC(=O)NC3=O)C4=O)CC2)n1 (centres unmarked) [Compound 150, 1-(7-tert-butylpyrazolo[1,5-a]pyrimidin-6-yl)-3-[6-[5-[5-[4-[2-(2,6-dioxo-3-piperidyl)-1-oxo-isoindolin-5-yl]piperazin-1-yl]pentyl]-1,2,4-oxadiazol-3-yl]-5-methyl-3-pyridyl]urea]"
